Test results reported in ChEMBL document CHEMBL1201862, “PubChem BioAssay data set” (2004).
Where “and” joins values, the source holds several entries; their conditions need not be identical. Equal values may be shown once.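 How tested: cells in 96-well plates exposed to compound for 48 hours at five concentrations. GI50 marks 50% less growth.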 Calls of active or inactive are those of the source. Rule as the data show it: active = GI50 up to about 1.1 µM and inactive = higher.

What was measured:
Assay in all cases: NCI anticancer screen, dose series, 48 h
BT-549 = test system: BT-549
SNB-75 = test system: SNB-75
PC-3 = test system: PC-3
OVCAR-4 = test system: OVCAR-4
LOX IMVI = test system: LOX IMVI
MCF7 = test system: MCF7
SR = test system: SR
NCI-H522 = test system: NCI-H522
HL-60 = test system: HL-60
M14 = test system: M14
HCT-15 = test system: HCT-15
A498 = test system: A498
SW-620 = test system: SW-620
CAKI-1 = test system: CAKI-1
HCT-116 = test system: HCT-116
SK-MEL-28 = test system: SK-MEL-28
A549 = test system: A549
HT-29 = test system: HT-29
TK-10 = test system: TK-10
DMS-114 = test system: DMS-114

Structure (SMILES)	GI50 (BT-549)	GI50 (SNB-75)	GI50 (PC-3)	GI50 (OVCAR-4)	GI50 (LOX IMVI)	GI50 (MCF7)	GI50 (SR)	GI50 (NCI-H522)	GI50 (HL-60)	GI50 (M14)	GI50 (HCT-15)	GI50 (A498)	GI50 (SW-620)	GI50 (CAKI-1)	GI50 (HCT-116)	GI50 (SK-MEL-28)	GI50 (A549)	GI50 (HT-29)	GI50 (TK-10)	GI50 (DMS-114)
O=C1/C(=C\c2cccs2)Oc2ccccc21	41.2 µM (inactive)	55.7 µM (inactive)	43.2 µM (inactive)	31.5 µM (inactive)	51.3 µM (inactive)	28.9 µM (inactive)	> 100 µM (inactive)	39.8 µM (inactive)	49.8 µM (inactive)	84.5 µM (inactive)	36.6 µM	42.3 µM (inactive)	> 100 µM (inactive)	33.6 µM (inactive)	60.4 µM (inactive)	> 100 µM (inactive)	56.9 µM (inactive)	63.7 µM (inactive)	90.6 µM (inactive)	
CC1=NN(c2ccc(C)cc2)C2(C1)SCC(=O)N2c1nc2ccccc2s1 (stereo not given)	24.2 µM (inactive)	16.1 µM (inactive)	20.5 µM (inactive)	20.2 µM (inactive)	19.6 µM (inactive)	4.7 µM (inactive)	7.11 µM (inactive)	16.7 µM (inactive)	13.1 µM (inactive)	22.7 µM (inactive)	20.5 µM	19.6 µM (inactive)	24.3 µM (inactive)	31 µM (inactive)	17.8 µM (inactive)	24.2 µM (inactive)	31.5 µM (inactive)	30.5 µM (inactive)	28 µM (inactive)	
COC(=O)c1cc2c(c(C(=O)OC)c1O)C(=O)C=CC2=O		9.95 µM (inactive)		> 38.8 µM (inactive)	36.4 µM (inactive)					> 44.9 µM (inactive)	21.6 µM	> 41.1 µM (inactive)		> 9.1 µM (inactive)	> 9.1 µM (inactive)	> 39.9 µM (inactive)	> 42.8 µM (inactive)	> 9.1 µM (inactive)	> 39.4 µM (inactive)	> 48.6 µM (inactive)
NCCOCC(N)C(=O)O (stereo not given)	> 100 µM (inactive)	> 100 µM (inactive)	> 100 µM (inactive)	> 100 µM (inactive)	> 100 µM (inactive) and > 77.4 µM (inactive)	> 100 µM (inactive)	> 100 µM (inactive) and 54.8 µM (inactive)	> 100 µM (inactive)	> 100 µM (inactive)	> 100 µM (inactive)	> 100 µM	> 100 µM (inactive)	> 100 µM (inactive)	> 100 µM (inactive)	> 100 µM (inactive)	> 100 µM (inactive)	> 100 µM (inactive)	> 100 µM (inactive)	> 100 µM (inactive)	
OC(CC(O)(C(F)(F)Cl)C(F)(F)Cl)c1ccccc1 (stereo not given)	> 10 µM (inactive)	> 10 µM (inactive)	> 10 µM (inactive)	> 10 µM (inactive)	> 10 µM (inactive)	> 10 µM (inactive)	> 10 µM (inactive)	> 10 µM (inactive)	> 10 µM (inactive)	< 0.001 µM (active)	> 10 µM	0.0107 µM (active)	> 10 µM (inactive)	> 10 µM (inactive)	> 10 µM (inactive)	> 10 µM (inactive)	> 10 µM (inactive)	> 10 µM (inactive)	> 10 µM (inactive)	
COc1ccccc1[C@@H]1CCC2CC[C@@H](c3ccccc3OC)[N+]21Cc1ccccc1 (stereo not given in full)	0.893 µM (active)	2.15 µM (inactive)	1.25 µM (inactive)	1.64 µM (inactive)	1.69 µM (inactive)	0.581 µM (active)	1.03 µM (active)	1.33 µM (inactive)	0.478 µM (active)	2.24 µM (inactive)	3.76 µM	2.25 µM (inactive)	2.6 µM (inactive)	3.87 µM (inactive)	1.6 µM (inactive)	3.56 µM (inactive)	1.99 µM (inactive)	0.847 µM (active)	5.74 µM (inactive)	
Cc1cc2c(c3nocc13)C(=O)c1ccccc1C2=O		28.6 µM (inactive)		> 100 µM (inactive)	> 100 µM (inactive)			> 100 µM (inactive)	98.2 µM (inactive)	> 100 µM (inactive)	> 100 µM		> 100 µM (inactive)	> 100 µM (inactive)		> 100 µM (inactive)	> 100 µM (inactive)	> 100 µM (inactive)	> 100 µM (inactive)	> 100 µM (inactive)
S=C(N/N=C(\c1ccccc1)c1ccccn1)NC1CCCCC1	23.4 µM (inactive)	65.3 µM (inactive)	1.4 µM (inactive)	7.91 µM (inactive)	2.61 µM (inactive)	0.433 µM (active)	> 26.1 µM (inactive)	1.94 µM (inactive)	0.16 µM (active)	1.16 µM (inactive)	1.02 µM	> 100 µM (inactive)	1.19 µM (inactive)	0.834 µM (active)	0.566 µM (active)	46.1 µM (inactive)	13.9 µM (inactive)	0.274 µM (active)	0.849 µM (active)	
CC(C)C(C)/C=C\C(C)C1CCC2C3=CC=C4CC(O)CCC4(C)C3CCC21C (stereo not given)	> 50.4 µM (inactive)	> 42.8 µM (inactive)	> 56.2 µM (inactive)	> 100 µM (inactive)	> 42.7 µM (inactive)	30.2 µM (inactive)	34.4 µM (inactive)	38.6 µM (inactive)	32.6 µM (inactive)	> 46.8 µM (inactive)	> 42.8 µM	> 85.5 µM (inactive)	> 49.3 µM (inactive)	> 43.7 µM (inactive)	39.8 µM (inactive)	> 41.7 µM (inactive)	> 100 µM (inactive)	33.3 µM (inactive)	> 55 µM (inactive)	
NC1=C(c2nc(-c3ccccc3)cs2)C(c2ccco2)c2c(c3ccccc3oc2=O)O1 (stereo not given)	> 100 µM (inactive)	> 100 µM (inactive)	> 100 µM (inactive)	> 100 µM (inactive)	> 100 µM (inactive)	> 100 µM (inactive)	> 100 µM (inactive)	76.2 µM (inactive)	> 100 µM (inactive)	> 100 µM (inactive)	> 100 µM	> 100 µM (inactive)	> 100 µM (inactive)	> 100 µM (inactive)	> 100 µM (inactive)	> 100 µM (inactive)	> 100 µM (inactive)	> 100 µM (inactive)	> 100 µM (inactive)	
CCNC(=S)/N=c1\sc(NCC)nc2sc3c(c12)CCN(N1CCc2c(sc4nc(NCC)s/c(=N\C(=S)NCC)c24)C1)C3	> 100 µM (inactive)	> 100 µM (inactive)	> 100 µM (inactive)	86.1 µM (inactive)	26 µM (inactive)	> 100 µM (inactive)	30.5 µM (inactive)	65.6 µM (inactive)	98.2 µM (inactive)	46.5 µM (inactive)	> 100 µM	54 µM (inactive)	34.7 µM (inactive)	> 100 µM (inactive)	19.5 µM (inactive)	92 µM (inactive)	82.4 µM (inactive)	41.1 µM (inactive)	> 100 µM (inactive)	
CC(C)(C)c1cc2c(OC/C=C/c3ccccc3)c(c1)Cc1cc(C(C#N)(OC/C=C/c3ccccc3)OC/C=C/c3ccccc3)cc(c1OC/C=C\c1ccccc1)Cc1cc(C(C)(C)C)cc(c1OC/C=C/c1ccccc1)Cc1cc(C(C#N)(OC/C=C\c3ccccc3)OC/C=C/c3ccccc3)cc(c1OC/C=C\c1ccccc1)C2 (stereo not given)	> 100 µM (inactive)	> 100 µM (inactive)	> 100 µM (inactive)	> 100 µM (inactive)	30.1 µM (inactive)	> 100 µM (inactive)	20.7 µM (inactive)	> 100 µM (inactive)	> 100 µM (inactive)	36.6 µM (inactive)	> 100 µM	> 100 µM (inactive)	> 100 µM (inactive)	> 100 µM (inactive)	> 100 µM (inactive)	> 100 µM (inactive)	> 100 µM (inactive)	> 100 µM (inactive)	1.95 µM (inactive)	
COc1cc([C@@H]2c3cc4c(cc3[C@@H](Nc3ccc(/N=C\c5ccc(C(=O)O[C@@H](C(=O)O[C@H]6C[C@@]7(O)[C@@H](OC(=O)c8ccccc8)[C@@H]8[C@]9(OC(C)=O)CO[C@@H]9C[C@H](O)[C@@]8(C)C(=O)[C@H](OC(C)=O)C(=C6C)C7(C)C)[C@@H](NC(=O)c6ccccc6)c6ccccc6)cc5)cc3)[C@H]3COC(=O)[C@H]23)OCO4)cc(OC)c1O	9.48 µM (inactive)	2.29 µM (inactive)	> 46.1 µM (inactive)	> 50 µM (inactive)	3.49 µM (inactive)	0.384 µM (active)	0.0102 µM (active)	> 21.3 µM (inactive)	0.697 µM (active)	5.48 µM (inactive)	7.96 µM	0.196 µM (active)	8.73 µM (inactive)	0.916 µM (active)	3.28 µM (inactive)	> 38.8 µM (inactive)	0.721 µM (active)	9.04 µM (inactive)	10.4 µM (inactive)	
CC(=O)O[C@H]1C(=O)[C@@]2(C)[C@H]([C@H](OC(=O)c3ccc(F)cc3)[C@]3(O)C[C@H](OC(=O)[C@H](O)[C@@H](NC(=O)c4ccccc4)c4ccccc4)C(C)=C1C3(C)C)[C@]1(OC(C)=O)CO[C@@H]1C[C@@H]2O	0.64 µM (active)	0.0189 µM (active)	0.0112 µM (active)	6.58 µM (inactive)	0.00828 µM (active)	0.00334 µM (active)	0.0108 µM (active)	0.0116 µM (active)	0.00469 µM (active)	0.0559 µM (active)	1.47 µM	0.202 µM (active)	0.0065 µM (active)	3.82 µM (inactive)	0.00608 µM (active)	9.48 µM (inactive)	0.082 µM (active)	0.00678 µM (active)	0.416 µM (active)	
